Test: Particle size distribution by Malvern Mastersizer S (volume basis)
Format: physicochemical
Details: first analysis after formation, diluted with water
Protocol: For the examples containing a substantial fraction of nanoparticles <100 nm in diameter, photon correlation spectroscopy was performed on a Brookhaven with an ALV5000 multiple tau correlator to determine the average particle size using a second order cumulant fit. In accordance with standard practice, the viscosity and index of refraction of the solvent at a volume percentage the same as after mixing were input as properties of the fluid. A Malvern Mastersizer S version 2.18 was also used to determine the particle size distribution based on volume, or similar to a weight. Likewise, the average particle size was based on volume or mass, D[4,3]. The data analysis used a polydisperse model and the Standard-Wet (3OHD) presentation that assumes the particle is suspended in water. Some samples were diluted with water for analysis. For all processing conditions, the water used was purified by RO and filtered and the temperature is given within 2° C. The polymer blocks were nominal molecular weight with the nomenclature (1000) describing a block nominally of 1000 g/mole. The blocks could have contained minor impurities (<10% by weight and typically <5% by weight) due to the method of synthesis.

- Mean size D[4,3]: 120 μm
- Yield of nanoparticles below 1060 nm: 9%
SMILES: CC1=C(/C=C/C(C)=C/C=C/C(C)=C/C=C/C=C(C)/C=C/C=C(C)/C=C/C2=C(C)CCCC2(C)C)C(C)(C)CCC1 [β-carotene]

From patent US9956179B2, “Process and apparatuses for preparing nanoparticle compositions with amphiphilic copolymers and their use” (The Trustees of Princeton University, priority 2001, dated 2018)
